This note sets out measurements from patent publication US20220192935A1, “COMPOSITION FOR A TOPICAL APPLICATION ON THE SKIN” (Biodermic Health & Beauty GmbH & Co. KG, priority 2019, published 2022).

The assay has as its system organisms of the skin flora (Corynebacterium minutissimum, Streptococcus mitis, Staphylococcus epidermidis, Staphylococcus galinarum, Propionibacterium acnes …). The experiment in a line: Investigation of single ingredients for influence on the growth of the organisms of the skin flora. In kind it is cell-based. Conditions: single ingredient, result in words. An excerpt:
The surprising positive effect of the above-described substances or substance groups on the growth of the microorganisms of the skin flora has been confirmed by investigations on microorganisms of the skin flora. Specifically, this involved analyzing the growth of the following species: Corynebacterium minutissimum, Streptococcus mitis, Staphylococcus epidermidis, Staphylococcus galinarum, Propionibacterium acnes, and Malassezia furfur, Malassezia sympodialis, Malassezia globosa and Malassezia restricta. The positive effect can be attributed to the fact that the microorganisms present on the skin cannot make use of the substances investigated. […] Investigations on Corynebacterium minutissimum, Streptococcus mitis, Staphylococcus epidermidis, Staphylococcus galinarum, Propionibacterium acnes, and Malassezia furfur, Malassezia sympodialis, Malassezia globosa and Malassezia restricta have confirmed this effect. The positive effect of these emulsifiers in terms of their influence on the growth of organisms of the skin flora has been confirmed by investigations on Corynebacterium minutissimum, Streptococcus mitis, Staphylococcus epidermidis, Staphylococcus galinarum, Propionibacterium acnes, and Malassezia furfur, Malassezia sympodialis, Malassezia globosa and Malassezia restricta. […]

Take Caprylic/Capric Triglyceride: the “influence on the growth of the organisms of the skin flora” value is “No growth-promoting influence was detected”.
